Test results reported in ChEMBL document CHEMBL1201862, “PubChem BioAssay data set” (2004).
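Briefly, cells in 96-well plates were exposed to five compound concentrations for 48 h, and endpoints were estimated by linear interpolation. At the GI50, growth is halved.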 Active and inactive are the calls of the source. No stated cut-off is given here; in the data, active = GI50 up to about 1.1 µM and inactive = higher.

Assays:
Experiment in all cases: growth of human tumour cells (NCI), 48 h
NCI-H522 = tested on: NCI-H522
SF-295 = tested on: SF-295
HCT-116 = tested on: HCT-116
OVCAR-5 = tested on: OVCAR-5
HOP-62 = tested on: HOP-62
UO-31 = tested on: UO-31
SNB-19 = tested on: SNB-19
KM12 = tested on: KM12
SK-OV-3 = tested on: SK-OV-3
COLO 205 = tested on: COLO 205
SF-539 = tested on: SF-539
HCT-15 = tested on: HCT-15
NCI-H23 = tested on: NCI-H23
HT-29 = tested on: HT-29
CAKI-1 = tested on: CAKI-1
RPMI-8226 = tested on: RPMI-8226

Row | Structure (SMILES) | GI50 (NCI-H522) | GI50 (SF-295) | GI50 (HCT-116) | GI50 (OVCAR-5) | GI50 (HOP-62) | GI50 (UO-31) | GI50 (SNB-19) | GI50 (KM12) | GI50 (SK-OV-3) | GI50 (COLO 205) | GI50 (SF-539) | GI50 (HCT-15) | GI50 (NCI-H23) | GI50 (HT-29) | GI50 (CAKI-1) | GI50 (RPMI-8226)
1 | CCCCCCCCCCCCC(Br)C(=O)NCC(N)=O (stereo not drawn) | 2.28 µM (inactive) | 14.3 µM (inactive) | 1.83 µM (inactive) | 29.4 µM (inactive) | 15 µM (inactive) | 2.09 µM (inactive) | 11.2 µM (inactive) | 14.2 µM (inactive) | 41.6 µM (inactive) | 21.2 µM (inactive) | 14.4 µM (inactive) | 8.87 µM | 4.51 µM (inactive) | 15.8 µM (inactive) |  | 
2 | COc1ccc(/N=N/c2c(-c3ccccc3)nn(C(=O)CC(=O)Nc3ccccc3Cl)c2-c2ccccc2)cc1 | > 100 µM (inactive) | > 100 µM (inactive) | > 100 µM (inactive) | 97.5 µM (inactive) | > 100 µM (inactive) | 42.9 µM (inactive) | > 100 µM (inactive) | 87.1 µM (inactive) |  | > 100 µM (inactive) | > 100 µM (inactive) | 58.9 µM | > 100 µM (inactive) | 47.1 µM (inactive) | > 100 µM (inactive) | 
3 | CCOC(=N)CC(=O)c1ccccc1 | > 100 µM (inactive) | > 100 µM (inactive) | > 100 µM (inactive) | > 100 µM (inactive) | > 100 µM (inactive) | > 100 µM (inactive) | > 100 µM (inactive) | > 100 µM (inactive) | > 100 µM (inactive) | > 100 µM (inactive) | > 100 µM (inactive) |  | > 100 µM (inactive) | > 100 µM (inactive) | > 100 µM (inactive) | 
4 | OC/C=C(\I)CCCOCOCc1ccccc1 | 23.3 µM (inactive) | 36.1 µM (inactive) | 28.1 µM (inactive) | 45.4 µM (inactive) | 42.5 µM (inactive) | 25.4 µM (inactive) | 52.8 µM (inactive) | > 100 µM (inactive) | > 100 µM (inactive) | 67.1 µM (inactive) | 50.6 µM (inactive) | 38.5 µM | 26.3 µM (inactive) | 36.2 µM (inactive) |  | 18.2 µM (inactive)
5 | COc1ccc2nc(NC(=O)C(=O)CC(=O)c3ccc(Cl)cc3)sc2c1 | 92.3 µM (inactive) | 56.9 µM (inactive) | > 100 µM (inactive) |  | > 100 µM (inactive) | 69 µM (inactive) | 95.5 µM (inactive) | 35.1 µM (inactive) | 34.7 µM (inactive) | > 100 µM (inactive) | 17.3 µM (inactive) | > 100 µM | > 100 µM (inactive) | > 100 µM (inactive) | 58.5 µM (inactive) | 
6 | O=C1c2ccccc2N2Oc3ccccc3C12c1ccccc1 (stereo not drawn) | > 100 µM (inactive) | > 100 µM (inactive) | > 100 µM (inactive) |  | > 100 µM (inactive) | > 100 µM (inactive) | > 100 µM (inactive) |  | > 100 µM (inactive) | > 100 µM (inactive) | > 100 µM (inactive) | > 100 µM | > 100 µM (inactive) | > 100 µM (inactive) |  | > 100 µM (inactive)
7 | O=C(CC(=O)C(F)(F)F)c1csc2ccccc12 | 23.9 µM (inactive) | 10.4 µM (inactive) | 34 µM (inactive) | 53 µM (inactive) | 22.5 µM (inactive) | 27.9 µM (inactive) | 37.2 µM (inactive) | 38.9 µM (inactive) | 18 µM (inactive) | 38.5 µM (inactive) | 31.6 µM (inactive) | 29.2 µM | 29.4 µM (inactive) |  |  | 24.8 µM (inactive)
8 | C=C(COC(C)=O)CC(/C=C(\C)CCC=C(C)C)OC(C)=O (stereo not drawn) | > 100 µM (inactive) | > 100 µM (inactive) | > 100 µM (inactive) | > 100 µM (inactive) | > 100 µM (inactive) | > 100 µM (inactive) | > 100 µM (inactive) | > 100 µM (inactive) | > 100 µM (inactive) | > 100 µM (inactive) | > 100 µM (inactive) | > 100 µM | > 100 µM (inactive) | > 100 µM (inactive) |  | > 10 µM (inactive)
